Measured values as given in PMC6359144 (International Journal of Molecular Sciences, 2019).
Entries after “also recorded” stand apart in the source; their conditions may differ.

Assays:
[1] = system: MCF-7^Topo breast adenocarcinoma cells; test: MTT assay, MCF-7^Topo breast carcinoma cells; type: cell-based; settings: Homo sapiens, MCF7/Topo, read-out: IC50 MCF-7^Topo (72 h)
Method: HT-29 (ACC-299), HCT-116 (ACC-581) and DLD-1 (ACC-278) colon carcinoma, MCF-7 (ACC-115) breast carcinoma, KB-V1 (ACC-149), 518A2 (Department of Radiotherapy and Radiobiology, University Hospital Vienna) melanoma and Ea.Hy926 (ATCC no. CRL-2922) HUVEC derived endothelial hybrid cells line were grown in Dulbecco’s Modified Eagle Medium (DMEM; Biochrom), high glucose supplemented with 10% (v/v) fetal bovine serum (FBS; Biochrom.) and 1% (v/v) Antibiotic-Antimycotic solution (anti-anti; Thermo Scientific). HDFa human dermal fibroblasts (ATCC: PCS-201-012™) were grown in DMEM supplemented with 10% FBS, 1% anti-anti and 2 mM glutamine. The cells were incubated at 37 °C, 5% CO2, 95% humidified atmosphere. By repeated addition of topotecan or vinblastine at the maximum tolerated dose to the cell medium of MCF-7 and KB-V1 cells, the cells were rendered multidrug-resistant, indicated as MCF-7^Topo and KB-V1^Vbl, respectively. They were serially passaged following trypsinization by using 0.05% trypsin/0.02% EDTA (Biochrom). Mycoplasma contamination was routinely monitored, and only mycoplasma–free cultures were used.
MTT [3-(4,5-dimethylthiazol-2-yl)-2,5-diphenyltetrazolium bromide] (ABCR) was used to determine the cytotoxicity of test compounds as previously described. Briefly, HDFa human dermal fibroblasts and Ea.Hy926 endothelial hybrid cells (both 1 × 10^5 cells/mL, 100 µL/well), 518A2 melanoma, KB-V1^Vbl cervix carcinoma, MCF-7^Topo breast carcinoma, HT-29, DLD-1 and HCT-116 colon carcinoma (all 5 × 10^4 cells/mL, 100 µL/well) were grown in 96-well culture plates for 24 h. Then, various concentrations of the test compounds were added and the cells were incubated for 24-72 h at 37 °C. After adding 12.5 µL of a 0.5% MTT solution in PBS (final concentration 0.05%) to cell medium, microplates were incubated for 2 h and subsequently swiftly turned to discard the medium. The precipitate of formazan crystals was then dissolved in a 10% solution of SDS in DMSO containing 0.6% acetic acid. To ensure complete dissolution of formazan, microplates were incubated for at least 4 h at 37 °C. Finally, the absorbance at λ = 570 nm (formazan) and 630 nm (background) was measured using a microplate reader (Tecan F200). All experiments were carried out in quadruplicate and the percentage of viable cells was calculated as the mean ± SD with controls set to 100%. Selected graphs of MTT assays can be found in the Supporting Information (Figure S8).

[2] = molecular target: T1, purified pig brain tubulin (Sus scrofa, UniProt P02550+P02554); test: Turbidimetric cell-free tubulin polymerization assay; type: biochemical; settings: 10 µM, 340 nm
T1 construct: using purified pig brain tubulin; from tissue; host or cells: pig brain
T1 sequence (P02554 whole entry): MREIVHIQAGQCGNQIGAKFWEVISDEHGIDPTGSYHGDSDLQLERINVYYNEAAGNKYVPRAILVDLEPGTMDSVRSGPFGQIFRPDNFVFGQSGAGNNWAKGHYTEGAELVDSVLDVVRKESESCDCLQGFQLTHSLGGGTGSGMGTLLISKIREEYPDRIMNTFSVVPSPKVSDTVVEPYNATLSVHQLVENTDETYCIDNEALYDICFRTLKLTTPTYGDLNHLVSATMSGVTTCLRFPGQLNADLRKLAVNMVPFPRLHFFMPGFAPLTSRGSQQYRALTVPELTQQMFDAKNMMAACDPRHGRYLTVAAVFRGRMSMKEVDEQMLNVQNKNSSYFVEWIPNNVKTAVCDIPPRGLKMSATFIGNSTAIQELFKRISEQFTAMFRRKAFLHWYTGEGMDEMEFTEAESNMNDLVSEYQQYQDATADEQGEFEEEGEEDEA
T1 sequence (P02550 whole entry): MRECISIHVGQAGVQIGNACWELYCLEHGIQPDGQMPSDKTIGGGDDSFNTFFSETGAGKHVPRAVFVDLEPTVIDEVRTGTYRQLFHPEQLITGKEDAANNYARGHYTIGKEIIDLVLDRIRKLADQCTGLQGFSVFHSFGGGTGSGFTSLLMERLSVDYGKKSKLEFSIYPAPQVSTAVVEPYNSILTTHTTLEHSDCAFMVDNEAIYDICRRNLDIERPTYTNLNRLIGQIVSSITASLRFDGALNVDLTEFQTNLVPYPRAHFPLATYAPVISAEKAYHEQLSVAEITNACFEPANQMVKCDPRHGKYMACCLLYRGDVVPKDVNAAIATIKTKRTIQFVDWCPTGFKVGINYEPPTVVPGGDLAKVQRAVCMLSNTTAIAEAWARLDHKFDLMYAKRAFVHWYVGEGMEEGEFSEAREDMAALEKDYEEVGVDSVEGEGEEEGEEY
Method: An amount of 50 µL of Brinkley’s buffer 80 (BRB80) supplemented with 20% glycerol and 3 mM GTP was given in a black 96-well half-area plate with clear bottom. Then, test compounds 4d–f (final concentration: 5 µM, or 10 µM) or vehicle (DMSO) were added. After adding 50 µL tubulin in BRB80 (10 mg/mL) was pipetted in the wells and immediately placed in a pre-heated microplate reader (Tecan). The polymerization was determined turbidimetrically at 37 °C by measuring the absorption at 340 nm for 120 min in intervals of 5 min. Values were normally distributed for each group (Shapiro–Wilk test, p > 0.05) and there was homogeneity of variance (Levene’s test, p > 0.05).

[3] = molecular target: T2, recombinant human HDAC6 (Homo sapiens, UniProt Q9UBN7); test: HDAC6 inhibitor screening assay (fluorometric); type: biochemical; settings: recombinant human HDAC6, mean ± SD of two experiments; read-out: HDAC inhibition IC50, HDAC6
T2 construct: purchased Biovision
T2 sequence (Q9UBN7 1-1215): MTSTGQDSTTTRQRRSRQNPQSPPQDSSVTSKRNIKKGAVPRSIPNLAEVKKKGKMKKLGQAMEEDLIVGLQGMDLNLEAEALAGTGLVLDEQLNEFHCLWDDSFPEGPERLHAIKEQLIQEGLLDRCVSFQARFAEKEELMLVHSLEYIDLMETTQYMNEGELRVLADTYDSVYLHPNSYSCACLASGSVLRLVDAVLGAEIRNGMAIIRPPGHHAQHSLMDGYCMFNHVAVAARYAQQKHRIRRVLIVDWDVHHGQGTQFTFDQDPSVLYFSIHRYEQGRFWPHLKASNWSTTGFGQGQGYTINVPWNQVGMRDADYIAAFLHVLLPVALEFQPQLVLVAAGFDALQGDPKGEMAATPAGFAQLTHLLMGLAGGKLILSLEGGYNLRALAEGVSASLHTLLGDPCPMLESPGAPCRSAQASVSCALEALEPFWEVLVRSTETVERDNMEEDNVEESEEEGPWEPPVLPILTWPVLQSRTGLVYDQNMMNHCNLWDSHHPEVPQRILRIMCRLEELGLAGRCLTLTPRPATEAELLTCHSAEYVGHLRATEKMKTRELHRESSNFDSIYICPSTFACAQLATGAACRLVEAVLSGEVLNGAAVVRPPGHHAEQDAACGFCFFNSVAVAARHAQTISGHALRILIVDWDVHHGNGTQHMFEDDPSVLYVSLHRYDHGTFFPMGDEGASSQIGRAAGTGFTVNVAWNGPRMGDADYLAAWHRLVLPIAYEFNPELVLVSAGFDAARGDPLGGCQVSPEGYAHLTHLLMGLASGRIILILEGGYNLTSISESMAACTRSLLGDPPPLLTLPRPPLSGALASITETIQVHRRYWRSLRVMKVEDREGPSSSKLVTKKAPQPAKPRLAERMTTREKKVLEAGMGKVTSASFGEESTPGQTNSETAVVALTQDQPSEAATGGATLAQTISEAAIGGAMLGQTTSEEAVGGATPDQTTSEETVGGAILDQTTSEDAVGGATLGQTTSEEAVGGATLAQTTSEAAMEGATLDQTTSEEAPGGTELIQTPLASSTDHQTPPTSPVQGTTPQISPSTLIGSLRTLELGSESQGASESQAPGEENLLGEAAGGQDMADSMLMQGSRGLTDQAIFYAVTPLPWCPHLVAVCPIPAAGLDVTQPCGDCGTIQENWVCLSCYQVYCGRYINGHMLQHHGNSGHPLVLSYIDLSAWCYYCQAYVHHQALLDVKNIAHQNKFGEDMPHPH
Method: The HDAC inhibitory potential of the novel compounds was determined by utilizing the deacetylase activity of recombinant human HDAC1 (HDAC1 Inhibitor Screening Assay Kit; Cayman Chemicals) or HDAC6 (HDAC6 Inhibitor Screening Kit (Fluorometric); Biovision) towards the corresponding synthetic acetylated-peptide substrates resulting in the release of a fluorescent product. The assays were performed according to manufacturer’s description of the in commercially available assay kits. […] The IC50 values were derived from dose-response curves and are expressed as the means ± SD of two independent experiments.

Compound	IC50 [1]	inhibition of tubulin polymerization [2]	IC50 [3]
COc1ccc(-c2ocnc2-c2cc(Br)c(OC)c(OC)c2)cc1OCCCC(=O)NO [4d, N-Hydroxy-4-[1-methoxy-4-(4’-(3’’-bromo-4’’,5’’-dimethoxyphenyl)oxazol-5’-yl)-2-phenoxy]butanamide]	2.8 ± 0.3 µM	inhibited the polymerization of pig brain tubulin nearly completely; also recorded: significant inhibition of tubulin polymerization	13.8 ± 0.2 µM
COc1ccc(-c2ocnc2-c2cc(Br)c(OC)c(OC)c2)cc1OCCCCC(=O)NO [4e, N-Hydroxy-5-[1-methoxy-4-(4’-(3’’-bromo-4’’,5’’-dimethoxyphenyl)oxazol-5’-yl)-2-phenoxy]pentanamide]	3.4 ± 0.2 µM	merely moderate inhibitory effect	3.5 ± 0.1 µM
COc1ccc(-c2ocnc2-c2cc(Br)c(OC)c(OC)c2)cc1OCCCCCC(=O)NO [4f, N-Hydroxy-6-[1-methoxy-4-(4’-(3’’-bromo-4’’,5’’-dimethoxyphenyl)oxazol-5’-yl)-2-phenoxy]hexanamide]	8.3 ± 0.7 µM	virtually none	0.32 ± 0.02 µM
